In one series the test system is Staphylococcus aureus. The series can be described thus: Agar Dilution Method of Sensitivity testing, NE alone and NE + antibiotic. The format is cell-based. Conditions: resistant S. aureus cultures, 48 hours. As to the method: (§1) Two kinds of investigations were carried-out using these bacterial isolates—using an Agar Dilution Method of Sensitivity testing.
i) To ascertain whether, NE can work as an antibacterial substance on its own. For this purpose, a stock-solution of NE was prepared and was sterilized as described in the preliminary experiments.
ii) This stock-solution was dispensed into the culture medium (Mueller Hinton Agar) so as to provide while; the medium was in liquid form. Four different concentrations of NE, viz.
iii) This medium was poured into petri dishes and allowed to solidify. Resistant cultures were inoculated on to these plates and after incubation for 48 hours, the growth patterns were assessed.
iv) The experiments were run in triplicate, for each concentration—as per standard practices of microbiological testing procedures.
(§2) i) The culture medium (Mueller Hinton Agar) was melted and distributed into a number of test tubes.
(§3) ii) The stock solution of NE was dispensed into these test tubes in four different concentrations viz.
(§4) iii) In the same medium, one of the antibiotics under investigation was also added so as to provide a variable concentration (at break-even point concentration) as described below:
(§5) iv) The culture medium containing NE extract+the antibiotic were poured into petri dishes and allowed to solidify.
(§6) v) The resistant bacterial strains were inoculated onto these plates, incubated for 48 hours and the growth patterns were studied on each plate.
These cultures were obtained various clinical samples, such as sputum, non-healing infected wounds, throat swabs etc.
(In general: In agar dilution, organisms are placed on agar that contains the substance at set levels.)

Series [1] concerns Klebsiella pneumoniae. The series can be described thus: Broth tube test of NE with antibiotic at break point, percentage of killing. In kind it is cell-based. Here is the method:
(§7) Since all the study isolates are resistant to the concerned antibiotics, each antibiotic is taken at its breakpoint concentration, (the highest serum concentration of that particular antibiotic reached after the maximum therapeutic dose in-vivo). The break points for various antibiotics are as follows:
(§8) Preparation of Neem Extract: Stock solution of neem extract (1 mg/ml) was prepared, filtered and autoclaved. It was used in 4 concentrations—1000 μg/ml; 500 μg/ml; 250 μg/ml; 125 μg/ml.
(§9) A set of four tubes with variable concentrations of the extract is prepared and to each of these tubes, the break point concentration of antibiotics is added. Now, these sets are inoculated with the study isolate in the same manner as per the broth dilution procedure. A set of six controls is inoculated with each isolate—in parallel with the main experiment.
(§10) 2. Only antibiotic solution
(§11) 3. Medium and antibiotic solution with inoculum
(§12) 5. Only Neem extract at 250 μg/ml
(§13) 6. Medium with Neem Extract and inoculum
(§14) Reading the test All the tests and control tubes are observed for visible turbidity of growth first. Since all the study isolates were earlier confirmed to be resistant to the antibiotics, the bacterial growth is expected at the breakpoint concentration of the antibiotic. Any reduction in the turbidity as compared to the control tube no. 3 is noted as a possible additive or synergistic effect of the neem extract with the antibiotic. In absence of such effect, the tubes may show growth matching with the control no. 4.
(§15) In case of a positive result, further sub-culturing was taken up, on solid media for colony counts with a calibrated loop. The colony counts could be noted by a semi quantitative method as 101 to 10^5 CFU/ml (Colony forming units). This is finally expressed as the percentage of killing as compared to the colony count obtained with control no. 4. Usually control tubes no. 3, 4 and 6 had similar colony counts.

Series [2] deals with Salmonella senftenberg. The series is described as above. The note with it: Example 13 strain; antibiotic in combination with NE, uniform in all four concentrations. The format is cell-based. As to the method:
as §7, §8, §9, §10, §11, §12, §13, §14, §15

Series [3] relates to Klebsiella pneumoniae. The series can be described thus: Broth Macro Dilution Test, MIC and MBC. The format is cell-based. The note with it: antibiotic alone. From the text:
(§16) This was done by estimation of the Minimum Inhibitory Concentration (MIC) and Minimum Bactericidal Concentration (MBC) on the selected isolates by a Broth Macro Dilution Test.
(§17) While conducting these tests, the guidelines given by the National committee of Clinical Laboratory Standards 1995 protocols were employed. Cation Supplemented Mueller Hinton Broth was used as medium for all organisms excepting for β haemolytic streptococci for which, Todd Hewit's Broth was used as medium.
(§18) The following concentrations of antibiotics were tested to determine MIC and MBC.
(§19) Co-trimoxazole (Sulpharnethoxazole/Trimethoprim/μg/μg per ml)
(§20) A minimum inhibitory concentration is the lowest level of antibiotic needed to cause an inhibition to bacterial growth in culture medium whereas, the minimum bactericidal concentration is the lowest concentration of antibiotic to achieve a 100% killing of bacteria. Thus, these two values are the practical indices of intensity of bacterial resistance to a given antibiotic. On the other hand, a break-even point of any antibiotic indicates the attainable blood levels after an administration of full dose, in human/animal body. Thus, this point indicates the practical dosage of administering any given antibiotic effectively and beyond this point, even if an antibiotic is found to act effectively in experimental situation—such dose cannot be administered in a clinical situation.

Series [4] concerns Salmonella senftenberg. The series can be described thus: Broth Macro Dilution Test, MIC and MBC. In kind it is cell-based. The note with it: Example 13: strain from burn wound swab culture; antibiotic alone.
Source text: as §16, §17, §18, §19, §20

For series [5] the following is noted: highest serum concentration reached after the maximum therapeutic dose in-vivo; cited from earlier work.
The subject of another series is Pseudomonas aerugenosa. Kind of series: Agar Dilution Method of Sensitivity testing, NE + antibiotic. Conditions: for Growth Patterns after addition of NE: no. of cultures +++ (growth) / Growth Patterns after addition of NE: no. of cultures −−− (inhibition of growth): 16 resistant Pseudomonas strains, 48 hours. In kind it is cell-based. As to the method:
as §1, §2, §3, §4, §5, §6

Where [6] appears, read: antibiotic at break-even point + NE 125 μg/mL.
Setting [7] is: antibiotic at break-even point + NE 250 μg/mL.
The mark [8] stands for this setting: antibiotic at break-even point + NE 500 μg/mL.
Where [9] appears, read: antibiotic at break-even point + NE 1000 μg/mL.
Where [10] appears, read: Example 3: strain from non-healing burn wound.
Where [11] appears, read: Example 4: strain from wound swab culture.

This is an account of results in patent publication US6599541B1, “Composition for treatment of drug resistant bacterial infections and a method of treating drug resistant bacterial infections” (priority 1999, dated 2003).

As to Gentamicin, the “Growth Patterns after addition of NE: no. of cultures +++ (growth)” value (from here on “Growth Patterns … no. of cultures +++ (growth)”) was 89 in the series with Staphylococcus aureus (setting [6]), 88 in the series on Staphylococcus aureus (setting [7]), 88 with Staphylococcus aureus (setting [8]) and 88 in the series with Staphylococcus aureus (setting [9]). Further, the “Growth Patterns after addition of NE: no. of cultures −−− (inhibition of growth)” value is reported as 13 in the series on Staphylococcus aureus (setting [6]), 14 in the series on Staphylococcus aureus (setting [7]), 14 in the series with Staphylococcus aureus (setting [8]) and 14 with Staphylococcus aureus (setting [9]).
Co-trimoxazole: the killing is on record as 50% with Klebsiella pneumoniae [1] (Example 3 strain, antibiotic at break point in combination with NE, uniform at 1000, 500, 250, 125 μg/ml); 90% with Klebsiella pneumoniae [1] (Example 4 strain, antibiotic at break-even concentration with NE, uniform at all four NE concentrations); 60% with Salmonella senftenberg [2]. The MBC in the series on Klebsiella pneumoniae [3] (setting [10]) is on record as > 16/304; in the series with Klebsiella pneumoniae [3] (setting [11]) it was 16/304; with Salmonella senftenberg [4], 16/304. The MIC in the series with Klebsiella pneumoniae [3] (setting [10]), with Klebsiella pneumoniae [3] (setting [11]) and with Salmonella senftenberg [4] was 8/152 throughout.
For `CC1(C)S[C@@H]2[C@H](NC(=O)[C@H](N)c3ccc(O)cc3)C(=O)N2[C@H]1C(=O)O` [Amoxacillin], the break point in series [5] was 16 µg/mL.
In the case of `CC1=C(C(=O)O)N2C(=O)[C@@H](NC(=O)[C@H](N)c3ccccc3)[C@H]2SC1` [Cephalexin], the “Growth Patterns … no. of cultures +++ (growth)” value with Staphylococcus aureus (setting [6]), in the series with Staphylococcus aureus (setting [7]), with Staphylococcus aureus (setting [8]) and in the series with Staphylococcus aureus (setting [9]) was 81 each time. For the same molecule, the “Growth Patterns after addition of NE: no. of cultures −−− (inhibition of growth)” value with Staphylococcus aureus (setting [6]), with Staphylococcus aureus (setting [7]), in the series on Staphylococcus aureus (setting [8]) and in the series on Staphylococcus aureus (setting [9]) was 21 each time. Further, in series [5], the break point was 18 µg/mL.
As for `CCN1CCN(C(=O)N[C@@H](C(=O)N[C@@H]2C(=O)N3[C@@H]2SC(C)(C)[C@@H]3C(=O)O)c2ccccc2)C(=O)C1=O` [Piperacillin], the “Growth Patterns … no. of cultures +++ (growth)” value in the series with Pseudomonas aerugenosa (setting [6]), in the series on Pseudomonas aerugenosa (setting [7]), in the series with Pseudomonas aerugenosa (setting [8]) and with Pseudomonas aerugenosa (setting [9]) was 3 throughout. The “Growth Patterns after addition of NE: no. of cultures −−− (inhibition of growth)” value with Pseudomonas aerugenosa (setting [6]), with Pseudomonas aerugenosa (setting [7]), in the series with Pseudomonas aerugenosa (setting [8]) and in the series on Pseudomonas aerugenosa (setting [9]) was 13 throughout. In addition, in the series with Pseudomonas aerugenosa (of 16 resistant strains, NE + antibiotic), the “isolates sensitized to the antibiotic by NE” value is recorded as 13.
